# Measured values: the NIST ThermoML archive (doi:10.1021/je200195q)
# Numbers after ± are expanded uncertainties.
# Test: activity coefficient (dimensionless); of the first substance listed, at infinite dilution; xn = mol fraction of the nth substance listed
# Conditions: 101 kPa, Liquid, Chromatography, x1 = 0
smiles,measurement,setting,value
CCCCO [butan-1-ol] + CCCCn1cc[n+](C)c1.O=S(=O)([N-]S(=O)(=O)C(F)(F)C(F)(F)F)C(F)(F)C(F)(F)F,activity coefficient,322.55 K,2.49 ± 0.17
same,activity coefficient,342.75 K,2 ± 0.14
same,activity coefficient,362.65 K,1.7 ± 0.11
C=CCCCC [hex-1-ene] + CCCCCC[n+]1ccn(C)c1.FC(F)(F)C(F)(F)[P-](F)(F)(F)(C(F)(F)C(F)(F)F)C(F)(F)C(F)(F)F,activity coefficient,312.8 K,3.67 ± 0.25
same,activity coefficient,332.85 K,3.42 ± 0.23
same,activity coefficient,354.65 K,3.14 ± 0.21
CC1CCCC1 [methylcyclopentane] + CCCCCCCCCCn1cc[n+](CCCCCCCCCC)c1C.O=S(=O)([N-]S(=O)(=O)C(F)(F)F)C(F)(F)F,activity coefficient,323.1 K,1.35 ± 0.088
same,activity coefficient,333.15 K,1.33 ± 0.086
same,activity coefficient,343.15 K,1.3 ± 0.084
CCCCCCCCCCC [undecane] + CCCCn1cc[n+](C)c1.O=S(=O)([N-]S(=O)(=O)C(F)(F)C(F)(F)F)C(F)(F)C(F)(F)F,activity coefficient,322.55 K,57.3 ± 3.9
same,activity coefficient,342.75 K,45.9 ± 3.1
same,activity coefficient,362.65 K,37.8 ± 2.6
CCCCCCC [heptane] + CCCCCC[n+]1ccn(C)c1.FC(F)(F)C(F)(F)[P-](F)(F)(F)(C(F)(F)C(F)(F)F)C(F)(F)C(F)(F)F,activity coefficient,312.8 K,8.84 ± 0.6
same,activity coefficient,332.85 K,7.73 ± 0.53
same,activity coefficient,354.65 K,6.62 ± 0.45
C[N+](=O)[O-] [nitromethane] + CCCCCC[n+]1ccn(C)c1.FC(F)(F)C(F)(F)[P-](F)(F)(F)(C(F)(F)C(F)(F)F)C(F)(F)C(F)(F)F,activity coefficient,312.8 K,0.452 ± 0.036
same,activity coefficient,332.85 K,0.438 ± 0.035
same,activity coefficient,354.65 K,0.41 ± 0.034
"Cc1ccccc1C [1,2-dimethylbenzene] + CCCCn1cc[n+](C)c1.O=S(=O)([N-]S(=O)(=O)C(F)(F)C(F)(F)F)C(F)(F)C(F)(F)F",activity coefficient,322.55 K,1.87 ± 0.13
same,activity coefficient,342.75 K,1.89 ± 0.13
same,activity coefficient,362.65 K,1.97 ± 0.13
CCN(CC)CC [triethylamine] + CCn1cc[n+](C)c1.CS(=O)(=O)[O-],activity coefficient,312.55 K,8.32 ± 0.57
same,activity coefficient,322.45 K,14.3 ± 0.98
same,activity coefficient,332.45 K,18.8 ± 1.3
CC(C)CO [2-methyl-1-propanol] + CCCCCCCCCCn1cc[n+](CCCCCCCCCC)c1C.O=S(=O)([N-]S(=O)(=O)C(F)(F)F)C(F)(F)F,activity coefficient,323.1 K,1.3 ± 0.084
same,activity coefficient,333.15 K,1.17 ± 0.075
same,activity coefficient,343.15 K,1.06 ± 0.067
CCC(C)CC [3-methylpentane] + CCCCCC[n+]1ccn(C)c1.FC(F)(F)C(F)(F)[P-](F)(F)(F)(C(F)(F)C(F)(F)F)C(F)(F)C(F)(F)F,activity coefficient,312.8 K,5.63 ± 0.38
same,activity coefficient,332.85 K,5.05 ± 0.34
same,activity coefficient,354.65 K,4.43 ± 0.3
CCC[N+](=O)[O-] [1-nitropropane] + CCCCCCCCCCn1cc[n+](CCCCCCCCCC)c1C.O=S(=O)([N-]S(=O)(=O)C(F)(F)F)C(F)(F)F,activity coefficient,323.1 K,0.504 ± 0.038
same,activity coefficient,333.15 K,0.487 ± 0.037
same,activity coefficient,343.15 K,0.479 ± 0.037
CO [methanol] + CCCCn1cc[n+](C)c1.O=S(=O)([N-]S(=O)(=O)C(F)(F)C(F)(F)F)C(F)(F)C(F)(F)F,activity coefficient,322.55 K,1.23 ± 0.079
same,activity coefficient,342.75 K,0.997 ± 0.062
same,activity coefficient,362.65 K,0.942 ± 0.059
CC1CCCCC1 [methylcyclohexane] + CCCCCCCCCCn1cc[n+](CCCCCCCCCC)c1C.O=S(=O)([N-]S(=O)(=O)C(F)(F)F)C(F)(F)F,activity coefficient,323.1 K,1.52 ± 0.1
same,activity coefficient,333.15 K,1.48 ± 0.098
same,activity coefficient,343.15 K,1.45 ± 0.095
CCCCCCC [heptane] + CCn1cc[n+](C)c1.CS(=O)(=O)[O-],activity coefficient,312.55 K,432 ± 30
same,activity coefficient,322.45 K,2230 ± 150
same,activity coefficient,332.45 K,497 ± 34
CCCC(C)=O [pentan-2-one] + CCCCCCCCCCn1cc[n+](CCCCCCCCCC)c1C.O=S(=O)([N-]S(=O)(=O)C(F)(F)F)C(F)(F)F,activity coefficient,323.1 K,0.397 ± 0.034
same,activity coefficient,333.15 K,0.404 ± 0.034
same,activity coefficient,343.15 K,0.407 ± 0.034
CCCCCCCCCC [decane] + CCCCn1cc[n+](C)c1.O=S(=O)([N-]S(=O)(=O)C(F)(F)C(F)(F)F)C(F)(F)C(F)(F)F,activity coefficient,322.55 K,37.4 ± 2.6
same,activity coefficient,342.75 K,33.3 ± 2.3
same,activity coefficient,362.65 K,28 ± 1.9
C=CCCCC [hex-1-ene] + CCCCCCCCCCn1cc[n+](CCCCCCCCCC)c1C.O=S(=O)([N-]S(=O)(=O)C(F)(F)F)C(F)(F)F,activity coefficient,323.1 K,1.39 ± 0.091
same,activity coefficient,333.15 K,1.38 ± 0.09
same,activity coefficient,343.15 K,1.36 ± 0.089
C=O [methanal] + CCCCn1cc[n+](C)c1.O=S(=O)([N-]S(=O)(=O)C(F)(F)C(F)(F)F)C(F)(F)C(F)(F)F,activity coefficient,322.55 K,0.134 ± 0.029
same,activity coefficient,342.75 K,0.155 ± 0.029
same,activity coefficient,362.65 K,0.164 ± 0.029
C=CCCCC [hex-1-ene] + CCCCn1cc[n+](C)c1.O=S(=O)([N-]S(=O)(=O)C(F)(F)C(F)(F)F)C(F)(F)C(F)(F)F,activity coefficient,322.55 K,6.07 ± 0.41
same,activity coefficient,342.75 K,5.55 ± 0.38
same,activity coefficient,362.65 K,5.24 ± 0.36
CCC=O [propanal] + CCCCn1cc[n+](C)c1.O=S(=O)([N-]S(=O)(=O)C(F)(F)C(F)(F)F)C(F)(F)C(F)(F)F,activity coefficient,322.55 K,0.539 ± 0.039
same,activity coefficient,342.75 K,0.533 ± 0.039
same,activity coefficient,362.65 K,0.522 ± 0.039
CCCCCCCCCCCCC [tridecane] + CCCCn1cc[n+](C)c1.O=S(=O)([N-]S(=O)(=O)C(F)(F)C(F)(F)F)C(F)(F)C(F)(F)F,activity coefficient,322.55 K,111 ± 7.6
same,activity coefficient,342.75 K,78.1 ± 5.3
same,activity coefficient,363.65 K,68.9 ± 4.7
